# What was measured:
# [1] = system: Barley shoot tips / mature embryo explants; test: Multiple bud/shoot induction from barley mature embryo explants on bud induction media; assay type: in vivo; settings: for multiple bud/shoot induction in barley shoot tips: relatively high amount of cytokinin to 2,4-D, 2 weeks
# Procedure: To induce multiple buds/shoots from the leaf base of Barley shoot tips post co-culture, we applied medium with a high relative amount of cytokinin to auxin (measured by either concentration or relative activity). Explants were generally on these bud induction medium for a total of 2 weeks, after which presence of multiple buds/shoots was assessed (phenotype shown in FIG. 21, with data summarized in boxplot form in FIG. 22). […] In some experiments, after 1 week on induction media without selection, explants were transferred to induction media with selection. During this 2-week period explants were kept at 27 C 16/8 photoperiod. It may be possible to reduce chimerism in T0 Barley plants by extending this shoot multiplication step to 4-8 weeks.(9)
# We followed this experiment up examining removal of 2,4-D from the bud induction phase, as well as its replacement with either picloram or fipexide.
# [2] = system: LH244 maize iVAEs (immature embryos, 20 DAP); test: Glyphosate sensitivity (selection titer) of dried, frozen, rehydrated maize iVAEs on Regeneration II medium; assay type: in vivo
# Procedure: Maize iVAEs (Immature Value-Added Explants) were prepared following the methods outlined below, and viability and glyphosate sensitivity of the dried, stored embryos were tested. These iVAEs were incubated for four days in a drying chamber with MgNO3 saturated salts and then stored at s −20° C. These frozen iVAEs were later pulled from storage and used to determine process survival as well as used in an experiment to determine sensitivity to the herbicide glyphosate (Millipore Sigma Glyphosate “N-(Phosphonomethyl) glycine”; Cat #337757-5G) for future use as a selection agent for these novel explants.
# Post Storage Rehydration Method of the iVAE embryos: Dried maize embryos (iVAEs) were placed on a sterile plate of Regeneration Medium II) and incubated at room temperature for 1 hour. Afterward, sterile water was added and embryos were incubated at room temperature for an additional hour followed by gentile agitation to complete the rehydration process. Embryos were then placed on experimental media to determine survival as well as sensitivity to glyphosate. The rehydrated maize iVAEs were placed on media plates, evenly spaced, and each plate was sealed with porous tissue culture tape and incubated in growth chamber at 26° C. with 16/8 light/dark photoperiod with 60 μmol m-2 s-1. For up to 56 days of observation.
# 20 DAP LH244 ears were collected from self-pollinated plants in the greenhouse. The embryos were extracted using the iVAE protocol. The extracted and cleaned embryos were placed in a drying chamber with MgNO3 saturated salts for 4 days. LH244 embryos were frozen for 4 days, or until used, at −20° C. in a hermetically closed 50 mL Falcon tube
# LH244 embryos were rehydrated as described in Example 9. Following rehydration, plates were set up using Regeneration II Medium. The first replicate has 30 embryos per plate, and the second only 22 per plate. The measurements are standardized to the number of surviving embryos, as measured by the number of embryos displaying coleoptile elongation. A subset of embryos was tested for viability using tetrazolium chloride (TTC).
# We analyzed this experiment by counting the percent germination, looking at stress phenotype and using the viability stain tetrazolium chloride (TTC). In general, during germination, green tissue is healthy, purple tissue is stressed and producing anthocyanins, and silver or white tissue is not producing chlorophyll.
smiles,measurement,setting,value
"O=C(Nc1ccccc1)Nc1cnns1 [TDZ, thidiazuron]",explant phenotype after 2 weeks on bud induction media,"[1]; 3 ppm TDZ, 1 ppm 2,4-D",multiple shooting/budding phenotype
same,multiple bud/shoot induction in barley shoot tips,[1],could induce multiple buds/shoots
"c1ccc(CNc2ncnc3nc[nH]c23)cc1 [BAP, 6-benzylaminopurine]",multiple bud/shoot induction in barley shoot tips,[1],could induce multiple buds/shoots
O=C(COc1ccc(Cl)cc1)N1CCN(Cc2ccc3c(c2)OCO3)CC1 [fipexide],explant health versus controls,"[1]; 3 ppm TDZ, 10 ppm fipexide","looked healthier than controls on 2,4-D media"
same,explant phenotype after 2 weeks on bud induction media,"[1]; 3 ppm TDZ, 10 ppm fipexide",multiple shooting/budding phenotype
same,explant phenotype after 2 weeks on bud induction media,"[1]; 10 ppm fipexide, TDZ removed",germinating phenotype
same,explant phenotype after 2 weeks on bud induction media,[1]; 100 ppm fipexide,explant sensitivity
"O=C(O)CNCP(=O)(O)O [glyphosate, N-(Phosphonomethyl) glycine]",damage (loss of greening shoots),"[2]; 10 μM glyphosate treatment plates, at 27 days",90%
same,reduction in frequency of greening shoots (impairment),"[2]; 50 μM glyphosate treatment plates, 10 days after start",about 80%
same,glyphosate concentration giving apparent reduction of anthocyanins synthesis,[2]; after 49 days,≥ 100 µM
same,anthocyanin production in treated embryos,[2]; in response to glyphosate,significant anthocyanin production
